Assay results taken from PubChem BioAssay (NCI).
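Abbreviation: GI50, concentration required for 50% inhibition of growth. TGI: concentration producing complete growth inhibition.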

How the values were obtained:
Test in all cases: NCI-60 cell line screen, 384-well format
[1] = test system: A498 renal
[2] = test system: A549 NSCLC
[3] = test system: ACHN renal
[4] = test system: BT-549 breast
[5] = test system: CAKI-1 renal
[6] = test system: COLO 205 colon
[7] = test system: DU-145 prostate
[8] = test system: EKVX NSCLC
[9] = test system: HCC-2998 colon
[10] = test system: HCT-116 colon
[11] = test system: HCT-15 colon
[12] = test system: HL-60(TB) leukemia
[13] = test system: HOP-62 NSCLC
[14] = test system: HOP-92 NSCLC
[15] = test system: HS 578T breast
[16] = test system: HT29 colon
[17] = test system: IGROV1 ovarian
[18] = test system: KM12 colon
[19] = test system: LOX IMVI melanoma
[20] = test system: M14 melanoma
[21] = test system: MALME-3M melanoma
[22] = test system: MCF7 breast
[23] = test system: MDA-MB-231 breast
[24] = test system: MDA-MB-435 melanoma
[25] = test system: MDA-MB-468 breast
[26] = test system: MOLT-4 leukemia
[27] = test system: NCI-H226 lung
[28] = test system: NCI-H23 lung
[29] = test system: NCI-H322M lung
[30] = test system: NCI-H460 NSCLC
[31] = test system: NCI-H522 lung
[32] = test system: NCI/ADR-RES ovarian
[33] = test system: OVCAR-3 ovarian
[34] = test system: OVCAR-4 ovarian
[35] = test system: OVCAR-5 ovarian
[36] = test system: OVCAR-8 ovarian
[37] = test system: PC-3 prostate
[38] = test system: RPMI-8226 leukemia
[39] = test system: RXF 393 renal
[40] = test system: SF-268 CNS
[41] = test system: SF-295 CNS
[42] = test system: SF-539 CNS
[43] = test system: SK-MEL-28 melanoma
[44] = test system: SK-MEL-5 melanoma
[45] = test system: SK-OV-3 ovarian
[46] = test system: SN12C renal
[47] = test system: SNB-19 CNS
[48] = test system: SNB-75 CNS
[49] = test system: SR leukemia
[50] = test system: T-47D breast
[51] = test system: TK-10 renal
[52] = test system: U251 glioblastoma
[53] = test system: UACC-257 melanoma
[54] = test system: UACC-62 melanoma

**Q.** How did the GI50 [1] turn out when CCn1c(C(=O)N(C2CC2)C2CC2)cc2c3c(ncn3C)c(Nc3cc(C)n(C)n3)nc21 was run?
**A.** > 100 µM

**Q.** And the TGI [1]?
**A.** > 100 µM

**Q.** And the GI50 [2]?
**A.** > 100 µM

**Q.** And the TGI [2]?
**A.** > 100 µM

**Q.** And the GI50 [3]?
**A.** > 100 µM

**Q.** And the TGI [3]?
**A.** > 100 µM

**Q.** And the GI50 [4]?
**A.** > 100 µM

**Q.** And the TGI [4]?
**A.** > 100 µM

**Q.** And the GI50 [5]?
**A.** > 100 µM

**Q.** What about the TGI [5] of the same compound?
**A.** > 100 µM

**Q.** And the GI50 [6]?
**A.** > 100 µM

**Q.** And the TGI [6]?
**A.** > 100 µM

**Q.** What about the GI50 [7] of the same compound?
**A.** > 100 µM

**Q.** What about the TGI [7] of the same compound?
**A.** > 100 µM

**Q.** And the GI50 [8]?
**A.** > 100 µM

**Q.** And the TGI [8]?
**A.** > 100 µM

**Q.** What about the GI50 [9] of the same compound?
**A.** > 100 µM

**Q.** What about the TGI [9] of the same compound?
**A.** > 100 µM

**Q.** And the GI50 [10]?
**A.** > 100 µM

**Q.** And the TGI [10]?
**A.** > 100 µM

**Q.** And the GI50 [11]?
**A.** > 100 µM

**Q.** And the TGI [11]?
**A.** > 100 µM

**Q.** And the GI50 [12]?
**A.** > 100 µM

**Q.** What about the TGI [12] of the same compound?
**A.** > 100 µM

**Q.** What about the GI50 [13] of the same compound?
**A.** > 100 µM

**Q.** And the TGI [13]?
**A.** > 100 µM

**Q.** What about the GI50 [14] of the same compound?
**A.** > 100 µM

**Q.** And the TGI [14]?
**A.** > 100 µM

**Q.** And the GI50 [15]?
**A.** > 100 µM

**Q.** What about the TGI [15] of the same compound?
**A.** > 100 µM

**Q.** What about the GI50 [16] of the same compound?
**A.** > 100 µM

**Q.** What about the TGI [16] of the same compound?
**A.** > 100 µM

**Q.** What about the GI50 [17] of the same compound?
**A.** 44 µM

**Q.** What about the TGI [17] of the same compound?
**A.** > 100 µM

**Q.** What about the GI50 [18] of the same compound?
**A.** 0.675 µM

**Q.** What about the TGI [18] of the same compound?
**A.** > 100 µM

**Q.** And the GI50 [19]?
**A.** 49.7 µM

**Q.** And the TGI [19]?
**A.** > 100 µM

**Q.** What about the GI50 [20] of the same compound?
**A.** > 100 µM

**Q.** And the TGI [20]?
**A.** > 100 µM

**Q.** And the GI50 [21]?
**A.** > 100 µM

**Q.** And the TGI [21]?
**A.** > 100 µM

**Q.** What about the GI50 [22] of the same compound?
**A.** > 100 µM

**Q.** What about the TGI [22] of the same compound?
**A.** > 100 µM

**Q.** What about the GI50 [23] of the same compound?
**A.** > 100 µM

**Q.** What about the TGI [23] of the same compound?
**A.** > 100 µM

**Q.** And the GI50 [24]?
**A.** > 100 µM

**Q.** What about the TGI [24] of the same compound?
**A.** > 100 µM

**Q.** And the GI50 [25]?
**A.** > 100 µM

**Q.** What about the TGI [25] of the same compound?
**A.** > 100 µM

**Q.** What about the GI50 [26] of the same compound?
**A.** 87.2 µM

**Q.** What about the TGI [26] of the same compound?
**A.** > 100 µM

**Q.** What about the GI50 [27] of the same compound?
**A.** > 100 µM

**Q.** What about the TGI [27] of the same compound?
**A.** > 100 µM

**Q.** What about the GI50 [28] of the same compound?
**A.** > 100 µM

**Q.** And the TGI [28]?
**A.** > 100 µM

**Q.** What about the GI50 [29] of the same compound?
**A.** > 100 µM

**Q.** And the TGI [29]?
**A.** > 100 µM

**Q.** And the GI50 [30]?
**A.** > 100 µM

**Q.** What about the TGI [30] of the same compound?
**A.** > 100 µM

**Q.** And the GI50 [31]?
**A.** > 100 µM

**Q.** And the TGI [31]?
**A.** > 100 µM

**Q.** And the GI50 [32]?
**A.** > 100 µM

**Q.** What about the TGI [32] of the same compound?
**A.** > 100 µM

**Q.** What about the GI50 [33] of the same compound?
**A.** > 100 µM

**Q.** And the TGI [33]?
**A.** > 100 µM

**Q.** And the GI50 [34]?
**A.** 33.4 µM

**Q.** What about the TGI [34] of the same compound?
**A.** > 100 µM

**Q.** And the GI50 [35]?
**A.** > 100 µM

**Q.** And the TGI [35]?
**A.** > 100 µM

**Q.** And the GI50 [36]?
**A.** > 100 µM

**Q.** What about the TGI [36] of the same compound?
**A.** > 100 µM

**Q.** What about the GI50 [37] of the same compound?
**A.** > 100 µM

**Q.** What about the TGI [37] of the same compound?
**A.** > 100 µM

**Q.** And the GI50 [38]?
**A.** > 100 µM

**Q.** And the TGI [38]?
**A.** > 100 µM

**Q.** And the GI50 [39]?
**A.** > 100 µM

**Q.** And the TGI [39]?
**A.** > 100 µM

**Q.** And the GI50 [40]?
**A.** > 100 µM

**Q.** And the TGI [40]?
**A.** > 100 µM

**Q.** And the GI50 [41]?
**A.** > 100 µM

**Q.** And the TGI [41]?
**A.** > 100 µM

**Q.** What about the GI50 [42] of the same compound?
**A.** > 100 µM

**Q.** And the TGI [42]?
**A.** > 100 µM

**Q.** What about the GI50 [43] of the same compound?
**A.** > 100 µM

**Q.** And the TGI [43]?
**A.** > 100 µM

**Q.** What about the GI50 [44] of the same compound?
**A.** > 100 µM

**Q.** And the TGI [44]?
**A.** > 100 µM

**Q.** What about the GI50 [45] of the same compound?
**A.** 34.8 µM

**Q.** What about the TGI [45] of the same compound?
**A.** > 100 µM

**Q.** What about the GI50 [46] of the same compound?
**A.** 3.43 µM

**Q.** What about the TGI [46] of the same compound?
**A.** > 100 µM

**Q.** And the GI50 [47]?
**A.** > 100 µM

**Q.** And the TGI [47]?
**A.** > 100 µM

**Q.** What about the GI50 [48] of the same compound?
**A.** 26.2 µM

**Q.** What about the TGI [48] of the same compound?
**A.** > 100 µM

**Q.** What about the GI50 [49] of the same compound?
**A.** 8.59 µM

**Q.** What about the TGI [49] of the same compound?
**A.** 50.5 µM

**Q.** And the GI50 [50]?
**A.** > 100 µM

**Q.** What about the TGI [50] of the same compound?
**A.** > 100 µM

**Q.** What about the GI50 [51] of the same compound?
**A.** 81.8 µM

**Q.** And the TGI [51]?
**A.** > 100 µM

**Q.** And the GI50 [52]?
**A.** > 100 µM

**Q.** And the TGI [52]?
**A.** > 100 µM

**Q.** What about the GI50 [53] of the same compound?
**A.** > 100 µM

**Q.** What about the TGI [53] of the same compound?
**A.** > 100 µM

**Q.** And the GI50 [54]?
**A.** > 100 µM

**Q.** What about the TGI [54] of the same compound?
**A.** > 100 µM
